Where two headings read alike, the source gives them in different places.
Molecular target: T1, human DP2 (Homo sapiens, UniProt Q9Y5Y4)
T1 construct: expressed in transfected cells; membranes prepared
T1 sequence (Q9Y5Y4 1-395): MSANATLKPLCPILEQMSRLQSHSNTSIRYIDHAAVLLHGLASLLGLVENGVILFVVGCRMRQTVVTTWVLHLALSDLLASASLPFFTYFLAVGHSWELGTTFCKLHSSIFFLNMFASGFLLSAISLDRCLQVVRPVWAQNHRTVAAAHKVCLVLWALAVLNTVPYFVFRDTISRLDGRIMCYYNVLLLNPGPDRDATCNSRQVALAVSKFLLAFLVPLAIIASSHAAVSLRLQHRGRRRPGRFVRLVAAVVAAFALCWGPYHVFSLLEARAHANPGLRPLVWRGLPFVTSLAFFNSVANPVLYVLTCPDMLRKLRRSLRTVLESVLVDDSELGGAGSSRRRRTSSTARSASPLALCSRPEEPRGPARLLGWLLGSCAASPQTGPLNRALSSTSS
Test: DP-2 binding inhibition assay (3H-PGD2, membranes of DP2-expressing K562 cells)
Method in brief: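 Displacement of 3H-PGD2 was measured by filtration and scintillation counting after 60 min at room temperature, using membranes of DP2-transfected K562 cells in 0.1% BSA, 1% HSA or 4% HSA.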

[1] = 4% HSA, read-out: EC50 (nM) 4% HSA

EC50 [1] | EC50 (0.1% BSA, read-out: EC50 (nM) 0.1% BSA) | SMILES
365 nM | – | O=C(Nc1cnc(-c2ccc(Cl)cc2)cn1)c1ccc(Oc2cc3c(cc2Cl)C(C(=O)O)CCO3)cc1 (centres unmarked) [Example 95, 6-Chloro-7-(4-(5-(4-chlorophenyl)pyrazin-2-ylcarbamoyl)phenoxy)chroman-4-carboxylic acid]
274 nM | – | O=C(Nc1cnc(-c2cccc(Cl)c2)cn1)c1ccc(Oc2cc3c(cc2Cl)C(C(=O)O)CCO3)cc1 (centres unmarked) [Example 96, 6-Chloro-7-(4-(5-(3-chlorophenyl)pyrazin-2-ylcarbamoyl)phenoxy)chroman-4-carboxylic acid]
203 nM | – | O=C(Nc1ccc(-c2cccc(Cl)c2)nn1)c1ccc(Oc2cc3c(cc2Cl)C(C(=O)O)CCO3)cc1 (centres unmarked) [Example 97, 6-Chloro-7-(4-(6-(3-chlorophenyl)pyridazin-3-ylcarbamoyl)phenoxy)chroman-4-carboxylic acid]
112 nM | 17.9 nM | O=C(Nc1ccc(-c2ccc(C(F)(F)F)cc2)nn1)c1ccc(Oc2cc3c(cc2Cl)C(C(=O)O)CCO3)cc1 (centres unmarked) [Example 98, Sodium 6-chloro-7-(4-(6-(4-(trifluoromethyl)phenyl)pyridazin-3-ylcarbamoyl)phenoxy)chroman-4-carboxylate]
235 nM | – | O=C(Nc1ccc(-c2cccc(C(F)(F)F)c2)nn1)c1ccc(Oc2cc3c(cc2Cl)C(C(=O)O)CCO3)cc1 (centres unmarked) [Example 99, Sodium 6-chloro-7-(4-(6-(3-(trifluoromethyl)phenyl)pyridazin-3-ylcarbamoyl)phenoxy)chroman-4-carboxylate]
46 nM | – | O=C(Nc1ccnc(-c2ccc(Cl)cc2)n1)c1ccc(Oc2cc3c(cc2Cl)C(C(=O)O)CCO3)cc1 (centres unmarked) [Example 100, sodium 6-chloro-7-(4-(2-(4-chlorophenyl)pyrimidin-4-ylcarbamoyl)phenoxy)chroman-4-carboxylate]
998 nM | – | Cc1nc(NC(=O)c2ccc(Oc3cc4c(cc3Cl)C(C(=O)O)CCO4)cc2)cc(-c2ccc(Cl)cc2)n1 (centres unmarked) [Example 101, Sodium 6-chloro-7-(4-(6-(4-chlorophenyl)-2-methylpyrimidin-4-ylcarbamoyl)phenoxy)chroman-4-carboxylate]
21.2 nM | – | Cc1cc(NC(=O)c2ccc(Oc3cc4c(cc3Cl)C(C(=O)O)CCO4)cc2)nc(-c2ccc(C(F)(F)F)cc2)n1 (centres unmarked) [Example 102, Sodium 6-chloro-7-(4-(6-methyl-2-(4-(trifluoromethyl)phenyl)pyrimidin-4-ylcarbamoyl)phenoxy)chroman-4-carboxylate]
57.1 nM | – | O=C(Nc1cccc(-c2ccc(Cl)cc2Cl)n1)c1ccc(Oc2cc3c(cc2Cl)C(C(=O)O)CCO3)cc1 (centres unmarked) [Example 103, Sodium 6-chloro-7-(4-(6-(2,4-dichlorophenyl)pyridin-2-ylcarbamoyl)phenoxy)chroman-4-carboxylate]
116 nM | – | COc1cc(Cl)ccc1-c1cccc(NC(=O)c2ccc(Oc3cc4c(cc3Cl)C(C(=O)O)CCO4)cc2)n1 (centres unmarked) [Example 104, Sodium 6-chloro-7-(4-(6-(4-chloro-2-methoxyphenyl)pyridin-2-ylcarbamoyl)phenoxy)chroman-4-carboxylate]
133 nM | – | CC(C)Cc1cccc(NC(=O)c2ccc(Oc3cc4c(cc3Cl)C(C(=O)O)CCO4)cc2)n1 (centres unmarked) [Example 105, 6-Chloro-7-(4-(6-isobutylpyridin-2-ylcarbamoyl)phenoxy)chroman-4-carboxylic acid]
87.7 nM | – | O=C(Nc1cccc(-c2ccc(Cl)cc2)n1)c1ccc(Oc2c(Cl)cc3c(c2Br)OCCC3C(=O)O)cc1 (centres unmarked) [Example 106, Sodium 8-bromo-6-chloro-7-(4-(6-(4-chlorophenyl)pyridin-2-ylcarbamoyl)phenoxy)chroman-4-carboxylate]
52.2 nM | – | O=C(Nc1cccc(-c2ccc(Cl)cc2)n1)c1ccc(Oc2c(C3CC3)cc3c(c2C2CC2)OCCC3C(=O)O)cc1 (centres unmarked) [Example 107, Sodium 7-(4-(6-(4-chlorophenyl)pyridin-2-ylcarbamoyl)phenoxy)-6,8-dicyclopropylchroman-4-carboxylate]
